Reference: US20170095423A1, “Use of selectively moisture-adjusted tabletting material in the production of mechanically stable tablets which contain at least one hydrate-forming active substance and/or adjuvant relevant to the mechanical stability of the tablets, particularly arginine-containing tablets” (Boehringer Ingelheim International GmBH, priority 2012, published 2017)

Experiment: sorption/desorption (DVS) behaviour: phase transition of the hydrate-forming agent L-arginine
Assay type: physicochemical
Text: DVS measurement: measurement of the water absorption of a sample as a function of relative humidity and temperature using a highly sensitive sorption scale.
Phase transition in hydrate-forming active substances or adjuvants: the relative humidity at which the hydrate-forming agent water (particularly water of crystallization) is incorporated and changes from an anhydrate or a lower-valency form into a higher valency hydrate form, or vice versa. This relative humidity is characteristic of the respective hydrate-forming agent; if a hydrate-forming agent incorporates water in several steps, there are several phase transitions in this substance. For example: phase transition for pure L-arginine: 38% r.h./25° C. with incorporation of about 1.5 mol of water per 1 mol of L-arginine; in mixtures comprising L-arginine the phase transition is typically between 38 and 40% r.h./25° C., but in the test formulation described herein by way of example it starts, at latest, at 40% r.h./25° C.
(sorption and desorption cycle; change water content vs. rel. humidity). Tablets produced from tabletting material pre-conditioned at 25° C./45% r.h. were subsequently stored in very different humidity ranges (arrows; for discussion of the cases 1-4 see the description herein).

Structure (SMILES): N=C(N)NCCC[C@H](N)C(=O)O [L-arginine]
- phase transition (relative humidity at which water of crystallization is incorporated), sorption cycle (25° C.): 38 % r.h.
- phase transition in the desorption cycle (release of water of crystallisation) (25° C.): < 30 % r.h.
- water incorporated at phase transition (38% r.h./25° C.): about 1.5 mol of water per 1 mol of L-arginine
- relative humidity to ensure the phase transition, sorption cycle (at 40° C.): about 47 % r.h.
